Non-standard residues stand in square brackets, D forms with d. Residues, ends and D or L forms follow the SMILES beside them. β3hF = N[C@H](CC(=O)O)Cc1ccccc1
Assays:
TNF-α = assay: LPS-induced TNF-α production in human whole blood cell cultures (WEHI 164.13 bioassay); type: cell-based; conditions: for % of Inhibition vs. DMSO Control / TNF-α: LPS 1 µg/mL; for % of Inhibition vs. DMSO Control: TNF-α production; for TNF-α: whole blood diluted 10×, overnight, single cultures; for Suppressive Effect on TNF-α Production: summary of structure-activity relationship, LPS-induced, whole blood
Description: Human whole blood was diluted 10× with RPMI-1640 medium and distributed to 24-well culture plates in 1 mL aliquots. LPS was added to the culture at a concentration of 1 µg/mL. The studied peptides were used at concentrations of 1, 10, and 100 µg/mL. After overnight incubation, the supernatants were harvested and frozen at −20 °C until cytokine determination. TNF-α activity was determined using a bioassay with the highly sensitive cell line WEHI 164.13 [29]. Briefly, cells were seeded at a concentration of 2 × 10^4 cells/well in quadruplicate. Increasing dilutions of the assayed supernatant were mixed with the target cells in the presence of actinomycin D (1 µg/mL). After 20 h of incubation, MTT was added into the wells, and the cultures were incubated for an additional 4 h. Next, a lysing buffer (20% SDS with 50% DMF, pH 4.7) was added and the OD at 550/630 nm in a spectrophotometer was measured after 24 h. The detection limit of the assay was about 2.5 pg/mL. One unit of TNF-α activity was defined as an inverse of supernatant dilution where 50% cell death took place. No statistics were applied here since the data were derived from single cultures (wells).

[1] = test system: contact sensitivity to oxazolone mouse model; assay: Contact sensitivity to oxazolone; type: in vivo; conditions: 0.1% ointment on auricles
Source text: (§1) C57Bl/6 female mice, 8–10 weeks old and weighing 19–22 g, were delivered by the Breeding Centre of Laboratory Animals at the Institute of Occupational Medicine, Łódź, Poland and used for this study. Mice had free access to granulated food and filtered water. The local ethics committee at the Institute of Immunology and Experimental Therapy, Wrocław, Poland, approved this study (permission #37/2012).
(§2) Blood smears were made on microscopic glasses, and the preparations were dried and stained with Giemsa and May–Grünwald dyes. The blood picture was evaluated in a light microscope at 1000× magnification in immersion oil. Up to 100 cells were counted per preparation. The results were shown as a percentage of mean values of respective cell types: mature neutrophils, band forms of neutrophils, eosinophils, lymphocytes, and monocytes.
The test was performed as described by others, with some modifications. Mice were shaved on the abdomen and after 24 h, 100 µL of 0.5% oxazolone in acetone was applied topically. […] The ear edema was measured after 24 h using a spring caliper. […]
Five to nine mice per group were used in the experiments. […] Nonparametric data were evaluated with the Kruskal–Wallis analysis of variance (ANOVA of K–W), as indicated in the text. Significance was determined at p < 0.05. […]

murine leukemia L1210 = conditions: 100 μg/mL; unpublished
human PBMCs = assay: Proliferative response of PBMC to PHA (MTT); type: cell-based; conditions: summary of structure-activity relationship; PHA-induced PBMC proliferation, 1-100 µg/mL
Description: PBMCs were isolated by centrifugation on a Ficoll-uropoline gradient (density 1.077 g/mL) (Lymphoprep, PAA Laboratories, Linz, Austria), at 800× g for 20 min at 4 °C. The interphase cells were then washed three times with Hanks’ medium and re-suspended in the culture medium (RPMI-1640 with 10% addition of FCS, L-glutamine, sodium pyruvate, 2-mercaptoetanol, and the antibiotics streptomycin and penicillin) at a density of 2 × 10^6 cells/mL.
The isolated PBMCs were distributed into 96-well flat-bottom plates in 100 µL aliquots (2 × 10^5 cells/well). PHA was used at a concentration of 5 µg/mL. The compounds were tested at concentrations of 1, 10, and 100 µg/mL. DMSO at appropriate dilutions served as a control solvent. After a 4-day incubation in a cell culture incubator, the proliferative response of the cells was determined by the colorimetric MTT method [28] in a Dynatech 5000 spectrophotometer. Data (OPSYS MR Dynex Technologies, Chantilly, VA, USA) are presented as a mean optical density (OD) at 550 nm, with a reference wavelength of 630 nm, from quadruplicate wells ± standard error (SE). The control cultures contained no PHA or PHA without the studied compounds.
The assay was performed by the MTT colorimetric method [29]. […] After additional overnight incubation, the OD was measured at 550/630 nm (Dynatech 5000 spectrophotometer).

[2] = test system: carrageenan-induced inflammation of the air pouch, mouse model; assay: Carrageenan-induced inflammation of air pouches; type: in vivo; conditions: 100 µg/mouse into air pouch; for Eosinophils in peripheral blood: control mice 9.6%; for Neutrophils in peripheral blood: control mice 37%; for Degranulated mastocytes in air pouches: control untreated air pouches 89.7%
Source text: as §1, §2
Air pouches were formed by a subdermal injection into the dorsal area (under halothane anesthesia) of 5 mL of air (23 G × 11/4 needle, 5 mL syringe). On the next day, the air pouches were supplemented by 1 mL of air and injected with 0.5 mL of 1% carrageenan solution in PBS. The peptides were dissolved in DMSO (1 mg/100 µL DMSO) and supplemented with 0.9% NaCl solution to a volume of 0.2 mL. P03 and 4B8M peptides were injected into air pouches at a dose of 100 µg/mouse 30 min after carrageenan administration. BG mice received the respective amount of DMSO in 0.9% NaCl. Control mice were given only carrageenan solution plus the respective amount of DMSO. The next day, the mice were bled to perform blood smears and sacrificed. A total of 1 mL of 0.9% NaCl was injected into air pouches and the content aspirated. From this source, a total number was determined, the rest were centrifuged, and from a cell pellet, the smears were performed on microscopic glasses and stained with Giemsa and May Grunwald reagents. The cell composition of air pouch exudates was analyzed and the results were shown as a percentage (mean values of the respective cell types: neutrophils, band forms of neutrophils, eosinophils, basophils, lymphocytes, macrophages, and mastocytes).
Five to nine mice per group were used in the experiments. Results (where applicable) are presented as mean values ± standard error (SE). The Brown–Forsyth test was used to determine the homogeneity of variance between groups. When the variance was homogenous, analysis of variance (one-way ANOVA) was applied, followed by post hoc comparisons with Tukey’s test to estimate the significance of the differences between groups. Nonparametric data were evaluated with the Kruskal–Wallis analysis of variance (ANOVA of K–W), as indicated in the text. Significance was determined at p < 0.05. Statistical analysis was performed using […] 7.0 for Windows.

[3] = 100 μg/mL; unpublished
mouse splenocytes = assay: ConA-induced proliferation of mouse splenocytes (unpublished data); type: cell-based; conditions: other data (unpublished)

Row | Compound | % of Inhibition vs. DMSO Control (TNF-α; peptide 1 µg/mL) | TNF-α (TNF-α; peptide 1 µg/mL) | % of Inhibition vs. DMSO Control (TNF-α; peptide 10 µg/mL) | TNF-α (TNF-α; peptide 10 µg/mL) | Suppressive Effect on TNF-α Production (TNF-α) | Percentage of all myeloid cell types in circulating blood [1] | Inhibition of growth of L1210 cells (murine leukemia L1210) | Suppressive Effect on Cell Proliferation (human PBMCs) | Eosinophils in peripheral blood [2] | Neutrophils in peripheral blood [2] | Degranulated mastocytes in air pouches [2] | Inhibition of growth of A431 cells [3] | Inhibition of concanavalin A (ConA)-induced proliferation of mouse splenocytes (mouse splenocytes)
1 | cyclo- [P02, cyclo-[D-Pro-D-Pro-β^3-HoPhe-D-Phe-]] | 19.0% | 6614 pg/mL | 20.7% | 6346 pg/mL | small | – | – | – | – | – | – | – | –
2 | cyclo-[Pro-D-Pro-β^3-HoPhe-Phe-] (head to tail) [P05] | 12.8% | 7123 pg/mL | 10.0% | 7203 pg/mL | – | – | – | – | – | – | – | – | –
3 | cyclo[Pro-Pro-β^3-HoPhe-D-Phe-] (head to tail) [P01] | 14.1% | 7016 pg/mL | 28.1% | 5757 pg/mL | – | – | – | – | – | – | – | – | –
4 | O=C1C[C@H](Cc2ccccc2)NC(=O)[C@@H]2CCCN2C(=O)[C@H]2CCCN2C(=O)[C@H](Cc2ccccc2)N1 [P03, cyclo-[D-Pro-Pro-β^3-HoPhe-Phe-]] (cyclo([dP]P[β3hF]F)) | 25.9% | 6052 pg/mL | 34.8% | 5222 pg/mL | strong | significantly reduced | 34% | significant at 100 µg/mL | 2.0% | 23% | 28.7% | 15% | –
5 | cyclo-[D-Pro-D-Pro-D-β^3-HoPhe-D-Phe-] [P06] | 1.6% | 8033 pg/mL | 4.4% | 7658 pg/mL | absent | – | – | – | – | – | – | – | –
6 | cyclo-[D-Pro-D-Pro-β^3-HoPhe-Phe-] (head to tail) [P07] | 21.0% | 6453 pg/mL | 9.0% | 7284 pg/mL | small | – | – | – | – | – | – | – | –
7 | cyclo[Pro-Pro-β^3-HoPhe-Phe-] (head to tail) [P00, cyclo-[Pro-Pro-β^3-HoPhe-Phe-], reference compound] | 9.8% | 7364 pg/mL | 10.4% | 7176 pg/mL | – | – | – | – | 3.4% | 31.5% | 39.5% | – | moderate inhibition
8 | cyclo-[Pro-Pro-D-β^3-HoPhe-Phe-] (head to tail) [P04] | 33.1% | 5463 pg/mL | 33.8% | 5302 pg/mL | strong | – | – | – | – | – | – | – | –

From PMC11359963 (Pharmaceutics, 2024)
